Results as given in patent US20120258945A1, “Association Between Ferroquine and an Artemisinine Derivative for Treating Malaria” (priority 2005, published 2012).

Tests used:
[1] = system: Plasmodium vinckei vinckei; test: In vivo activity in mice infected with Plasmodium vinckei vinckei: parasitaemia at D4 after 4 days of oral treatment
Description: Female “Swiss” mice, aged eight weeks and one day, are inoculated with parasites of Plasmodium vinckei vinckei type (Rodhain, 1952). The mice are acclimatized beforehand for two weeks. The mice are given food and drink ad libitum.
The Plasmodium vinckei vinckei strain is maintained by weekly infection in the mouse with 10^7 parasitized erythrocytes suspended in a phosphate buffered saline (0.9%).
(§1) This administration is repeated on the following three days (D1 to D3) (Peter, 1987). When the two products are administered in combination, the artesunate is administered first, the ferroquine is administered second, 45 minutes later. On the fourth day, a blood smear is taken from the tail of the mouse. The sample is fixed on a plate. The number of parasitized blood cells is counted under a microscope. The parasitaemia is expressed as percentage of infected erythrocytes present in the sample on a sample of 1000 cells. Six or seven mice are used per dose.
The IC50 is defined as the concentration in mg/kg/day which inhibits the blood parasitaemia by 50% at the fourth day (D4) after infection (D0) and four days of treatment (D0,D1,D2,D3). 0% inhibition corresponds to the mean of the parasitaemias observed in the untreated infected mice. […]
The IC50 of ferroquine is determined after administration of concentrations of between 1 and 10 mg/kg/day. […]

[2] = system: Plasmodium vinckei vinckei; test: Mortality / survival and curative dose in mice infected with Plasmodium vinckei vinckei; assay type: in vivo; conditions: oral, 4 days of treatment, compounds administered separately
Method: as §1, with “On the first day of treatment (D0), one hour after infection (10^7 parasitized erythrocytes suspended in a phosphate buffered saline (0.9%)), the animal is administered, orally, as appropriate, with ferroquine, with artesunate or with a mixture of the two active ingredients. This” for “This”
Each day, from day 5 after infection, the number of dead mice is counted so as to determine the percentage mortality (number of mice dead relative to the number of mice of the batch considered). The curative dose is the first dose at which all the mice of the batch survive.

Question: With `C[C@@H]1CC[C@H]2[C@@H](C)C(OC(=O)CCC(=O)[O-])O[C@@H]3O[C@]4(C)CC[C@@H]1C32OO4.[Na+]` (stereo partly drawn) [artesunate] as the compound, how does the “IC50 (dose which inhibits the blood parasitaemia by 50% at D4)” value ([1]; 4 days of treatment (D0-D3), parasitaemia at D4, compounds administered separately, linear interpolation of dose-response curve) read?
Answer: 2.79 mg/kg/day

Question: And the “Parasitaemia (as %), mean” value ([1]; artesunate 6 mg/kg/day alone (ferroquine 0), 4 days, infected erythrocytes at fourth day after infection)?
Answer: 7.1%

Question: What about the “curative dose (first dose at which all the mice of the batch survive)” value [2] of the same compound?
Answer: greater than 15 mg/kg/day
